Tests used:
4T1 breast cancer cells [1] = assay: Nucleotide levels by LC-MS in 4T1 cells with or without mizoribine (or L-Name); type: cell-based, murine; conditions: 300 µM mizoribine, 24 h
Procedure: B) The purine/pyrimidine ratio is increased upon glucose deprivation in murine breast cancer cells. 4T1 cells were grown in the absence of glucose for 24h (baseline) and 48h and quantified by liquid chromatography-mass spectrometry (LC-MS). Nucleotide levels were measured in µg/ml and corrected for protein concentration. Purine/pyrimidine ratio was calculated by dividing (AMP+GMP) by (UMP+CMP) relative concentrations. C) ASS1 inhibition decreases the purine/pyrimidine ration under glucose deprivation. 4T1 cells were grown in the presence or absence of glucose for 48 h and analysed as in 1B. […] Cells were grown and treated as in 5B. […] 4T1 cells were grown either with or without 300 µM mizoribine for 24 h. Nucleotide levels were measured by LC-MS. […] Each experiment was conducted with biological and technical replicates and repeated at least three times. G) A549 cells were grown for 48 hr in control medium or supplemented with 1.2 µM Methotrexate (Holland-Moran). Nucleotide levels were measured as described below by LC-MS. Purine/pyrimidine ratio was calculated by dividing (AMP+GMP+ATP+GTP) concentration by (UMP+CMP+TMP+UTP+CTP+TTP) concentration before and after methotrexate. All error bars represent SER. *P<0.05, **P<0.01. Each experiment was conducted with biological and technical replicates and repeated at least three times.
(§1) A) Purine/pyrimidine ratio is increased upon nutrient deprivation in […] colon cancer cells. MC38 cells were grown in either regular medium or in medium without glucose for 24 h. Nucleotide levels were measured by LC-MS. Purine/pyrimidine ratio was calculated by dividing (AMP+GMP) AUC by (UMP+CMP) AUC. B) 4T1 cells with and without shASS1 were grown in glucose free medium either supplemented or not with 10 mM L-Name for 48 hrs. Nucleotide levels were measured by LC-MS. Purine/pyrimidine ratio was calculated by dividing the sum levels of (AMP+GMP) by the sum levels of (UMP+CMP+TMP). […] MC38 cells were grown either with or without 300 µM mizoribine for 24 h. Nucleotide levels were measured by LC-MS. […] 4T1 (left panel) and MC38 cells (right panel) were grown for 24 h with or without 300 µM mizoribine. Cell viability was measured by crystal violet staining. Each experiment was conducted with biological and technical replicates and repeated at least three times. All error bars represent SER. * P<0.05, ** denotes P<0.01, ***P<0.001.
LC-MS analysis: The LC-MS/MS instrument consisting of an Acquity I-class UPLC system (Waters) and Xevo TQ-S triple quadrupole mass spectrometer (Waters), equipped with an electrospray ion source, and operated in positive ion mode was used for analysis of nucleoside monophosphates. MassLynx and TargetLynx software (version 4.1, Waters) were applied for the acquisition and analysis of data. Chromatographic separation was done on a 100 mm × 2.1 mm internal diameter, 1.8-µm UPLC HSS T3 column equipped with 50 mm × 2.1 mm internal diameter, 1.8-µm UPLC HSS T3 pre-column (both Waters Acquity) with mobile phases A (10 mM ammonium acetate and 5 mM ammonium hydrocarbonate buffer, pH 7.65 adjusted with 10% acetic acid) and B (acetonitrile) at a flow rate of 0.3 mL min-1 and column temperature 25° C. A gradient was used as follows: for 0-3 min the column was held at 0.2% B, then 3-3.5 min a linear increase to 100% B, 3.5-4.0 min held at 100% B, 4.0-4.5 min back to 0.2% B and equilibration at 0.2% B for 2.5 min. […] Nucleotide concentration was calculated using a standard curve of the relevant nucleotide concentration in each sample. […]

4T1 breast cancer cells [2] = assay: Syngeneic mouse breast cancer model, 4T1 cells pre-treated in vitro with mizoribine; type: in vivo, BALB/c female mice
Excerpt: C) ASS1 mRNA expression levels and NDNO scores are associated with non-response to anti-PD1 therapy in non-small cell lung cancer (NSCLC) (7 responders and 14 nonresponders). D) Proteomic-based NDNO scores associate with lower hydrophobicity of peptide repertoire (Wilcoxon ranksum P<0.05) in a (CPTAC3) lung adenocarcinoma cohort. NDNO scores were used to determine the top tertile (red; n=36) and bottom tertile (blue; n=36); Proteomic NDNO scores denote the ratio of NNDO scores of the tumor vs the matched normal sample (Methods). Hydrophobicity scores were determined by R library Peptides using the metric from Janin et al^2, where the hydrophobicity of each sample’s peptide repertoire denotes the mean hydrophobicity of all its peptides (Methods). E) 4T1 breast cancer cells were treated with 300 µM mizoribine for 24 hours and analysed by western for LMP-7 immunoproteasome (Left panel). Quantification of the western is shown on the right panel. […] Tumor size was calliper-measured on the designated days (upper panel) and at sacrifice on day 14 (lower panel, p = 0.0476 using student’s t-test). […] Human IFNγ was measured using ELISA in wells containing cultured CD8+T-cells and PDX explants from two patients (Pat#1, LEP 19 and Pat#2, LEP 20) with metastatic NSCLC on responsive to anti-PD1. […]

MC38 cells = assay: Cell viability by crystal violet staining, MC38; type: cell-based, mouse; conditions: 300 µM mizoribine, 24 h
Procedure: as §1

[3] = corrected for protein concentration

NC(=O)c1ncn([C@@H]2O[C@H](CO)[C@@H](O)[C@H]2O)c1O [Mizoribine, mizoribine]
purine/pyrimidine ratio (AMP+GMP)/(UMP+CMP) (4T1 breast cancer cells [1]): decreased purine/pyrimidine ratio
AMP level, Mizoribine treatment (4T1 breast cancer cells [1]; [3]): 483.2 µg/ml/ pt
CMP level, Mizoribine treatment (4T1 breast cancer cells [1]; [3]): 7.3 µg/ml/ pt
GMP level, Mizoribine treatment (4T1 breast cancer cells [1]; [3]): 28.46 µg/ml/ pt
UMP level, Mizoribine treatment (4T1 breast cancer cells [1]; [3]): 38.39 µg/ml/ pt
tumor growth (4T1 breast cancer cells [2]; 4T1 cells treated with mizoribine in vitro before injection into mammary pads, mizoribine alone): restricted tumor growth
tumor growth response in combination with anti-PD1 (4T1 breast cancer cells [2]; 4T1 cells treated with mizoribine in vitro before injection, anti-PD1 intraperitoneal, mice unresponsive to anti-PD1): more significant response
cancer cell proliferation (cell viability, crystal violet) (MC38 cells): restricts ASS1-overexpressing cancer cell proliferation
